From patent US20090054509A1, “Octahydropentalene-Substituted Pyrazoline Derivatives, Their Prepartion and Use as Medicaments” (LABORATORIOS DEL DR. ESTEVE, S.A., priority 2005, published 2009)

Key:
[1] = molecular target: T1, recombinant human cannabinoid 1 receptor (CB1) (Homo sapiens, UniProt P21554); experiment: [35S]GTPγS binding assay, antagonism against WIN 55,212-2; type: biochemical; conditions: compound at 1 μM against WIN 55,212-2 dose response, CHO-hCB1 membranes, 100% = effect of internal standard CB1-antagonist
T1 construct: expressed in transfected cells; membranes prepared
T1 sequence (P21554 whole entry): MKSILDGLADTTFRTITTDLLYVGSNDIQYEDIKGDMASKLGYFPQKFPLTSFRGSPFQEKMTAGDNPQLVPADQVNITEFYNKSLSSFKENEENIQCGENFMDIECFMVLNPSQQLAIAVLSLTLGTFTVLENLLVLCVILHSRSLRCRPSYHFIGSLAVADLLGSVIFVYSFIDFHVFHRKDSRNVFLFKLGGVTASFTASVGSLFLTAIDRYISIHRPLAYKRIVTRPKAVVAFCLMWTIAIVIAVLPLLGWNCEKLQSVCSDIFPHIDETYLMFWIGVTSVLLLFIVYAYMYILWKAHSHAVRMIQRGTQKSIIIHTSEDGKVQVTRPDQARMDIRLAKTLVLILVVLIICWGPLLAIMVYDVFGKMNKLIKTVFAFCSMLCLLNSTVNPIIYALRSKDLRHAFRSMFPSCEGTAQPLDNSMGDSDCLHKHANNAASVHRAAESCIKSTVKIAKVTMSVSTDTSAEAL
Description: Chinese hamster ovary (CHO) cells stably expressing recombinant human cannabinoid 1 receptor (CB1) were cultured in nutrient mixture Ham's F 12 supplemented with 10% heat-inactivated fetal bovine serum, 2 mM L-glutamine, 50 U/ml penicillin, 50 U/ml streptomycin and 0.5 mg/ml geneticin. In order to obtain cells, culture flasks were washed twice with phosphate buffered saline and scraped. Then, cells were collected by centrifugation (200×g, 10 min) and stored dry at −80° C. Cells were homogenized in ice-cold 20 mM HEPES, 10 mM EDTA (pH 7.5) and centrifuged at 40,000×g for 15 min at 4° C. The pellet was resuspended in 20 mM HEPES, 0.1 mM EDTA (pH 7.5) and centrifuged for 15 min at 4° C. The final pellet was resuspended in 20 mM HEPES, 0.1 mM EDTA (pH 7.5), and divided in aliquots and stored at −80° C. until use.
The reaction was performed in 96-well plates. Membranes (15 µg protein/well) were incubated for 60 min at 30° C. in buffer (50 mM HEPES, 100 mM KCl, 5 mM MgCl2, 1 mM EDTA, 0.1% wt/vol bovine serum albumin, 5 μM GDP, saponin (10 μg/ml), 0.5 nM [^35S]GTPγS, pH 7.4) with compound at 1 μM final concentration in either the absence or presence of dose response curve of agonist WIN 55, 212-2 between 3 nM and 3 μM. The incubation was terminated by rapid filtration through Millipore Multiscreen glass fiber FB, and rinsed two-times with ice-cold assay buffer. Filter plates were dried and 30 μl of scintillation liquid was added. Radioactivity was determined using Wallac Microbeta Trilux. Each experiment was performed at least in duplicate. A WIN 55, 212-2 dose-response was systematically performed.
The average of basal [^35S]GTPγS binding was subtracted from all binding data. In order to compare the antagonism results from one screening campaign to another one, the difference between the maximal agonist effect of WIN 55, 212-2 alone, and the maximal antagonism effect due to WIN 55, 212-2 with an internal standard CB1-antagonist was defined as 100%.

[2] = In vivo testing for antiobesic activity, acute treatment; conditions: rats, acute oral administration; body weight difference versus control
Description: Normally handled rats were habituated to a reversed cycle 12/12 h, and the compound as well as saline was acutely orally administered. After administration the cumulated food intake (g) was measured at 6 h and 23 h. Following that the difference in body weight between control and compound treated animals was measured.

| Structure (SMILES) | Antagonism (%) [1] [%] | Antagonism (%) ([1]; hydrochloride) | reduction of body weight [2] |
| --- | --- | --- | --- |
| C[C@H]1C(C(=O)NN2CC3CCCC3C2)=NN(c2ccc(Cl)cc2Cl)[C@H]1c1ccc(Br)cc1.Cl (relative stereo) [Example 3, cis-5-(4-bromophenyl)-1-(2,4-dichlorophenyl)-N-(hexahydrocyclopenta-[c]pyrrol-2(1H)-yl)-4-methyl-4,5-dihydro-1H-pyrazole-3-carboxamide hydrochloride] | 99 ± 2 |  |  |
| C[C@H]1C(C(=O)NN2CC3CCCC3C2)=NN(c2ccc(Cl)cc2Cl)[C@H]1c1ccc(F)cc1.Cl (relative stereo) [Example 5, cis-1-(2,4-dichlorophenyl)-5-(4-fluorophenyl)-N-(hexahydrocyclopenta-[c]pyrrol-2(1H)-yl)-4-methyl-4,5-dihydro-1H-pyrazole-3-carboxamide hydrochloride] | 108 ± 13 |  |  |
| COc1ccc([C@H]2[C@@H](C)C(C(=O)NN3CC4CCCC4C3)=NN2c2ccc(Cl)cc2Cl)cc1.Cl (relative stereo) [Example 7, cis-1-(2,4-dichlorophenyl)-N-(hexahydrocyclopenta[c]pyrrol-2(1H)-yl)-5-(4-methoxyphenyl)-4-methyl-4,5-dihydro-1H-pyrazole-3-carboxamide hydrochloride] | 148 |  |  |
| C[C@H]1C(C(=O)NN2CC3CCCC3C2)=NN(c2ccc(Cl)cc2Cl)[C@H]1c1ccc(Cl)cc1.Cl (single isomer, unassigned) [1 (HCl), cis-5-(4-chlorophenyl)-1-(2,4-dichlorophenyl)-N-(hexahydrocyclopenta-[c]pyrrol-2(1H)-yl)-4-methyl-4,5-dihydro-1H-pyrazole-3-carboxamide hydrochloride] |  | 102 ± 7 |  |
| C[C@H]1C(C(=O)NN2CC3CCCC3C2)=NN(c2ccc(Cl)cc2Cl)[C@H]1c1ccc(Cl)cc1.Cl (single isomer, unassigned) [Example 1, cis-5-(4-chlorophenyl)-1-(2,4-dichlorophenyl)-N-(hexahydrocyclopenta-[c]pyrrol-2(1H)-yl)-4-methyl-4,5-dihydro-1H-pyrazole-3-carboxamide hydrochloride] |  | 112 ± 0 | good activity |
